How the values were obtained:
[1] = Antiproliferative activity against human MIAPaCa2 cells after 48 hrs by MTS assay; format: functional, cell-based; conditions: MIA PaCa-2, 48 h
[2] = Antiproliferative activity against human SKOV3 cells after 48 hrs by MTS assay; format: functional, cell-based; conditions: SK-OV-3, 48 h
[3] = Antiproliferative activity against human WI38 cells after 48 hrs by MTS assay; format: cell-based; conditions: WI-38, 48 h
[4] = Antiproliferative activity against human DU145 cells after 48 hrs by MTS assay; format: functional, cell-based; conditions: DU-145, 48 h
[5] = Antiproliferative activity against human A2058 cells after 48 hrs by MTS assay; format: functional, cell-based; conditions: A2058, 48 h
[6] = Antiproliferative activity against human PC3 cells after 48 hrs by MTS assay; format: functional, cell-based; conditions: PC-3, 48 h
[7] = Cell cycle arrest in human PC3 cells assessed as accumulation at G0/G1 phase at antiproliferative IC50 after 48 hrs by propidium iodide staining based FACS analysis (reference value: 38.3 +/- 0.7%); format: functional; conditions: PC-3
[8] = Cell cycle arrest in human PC3 cells assessed as accumulation at S phase at antiproliferative IC50 after 48 hrs by propidium iodide staining based FACS analysis (reference value: 37.7 +/- 2.2%); format: functional; conditions: PC-3
[9] = Cell cycle arrest in human PC3 cells assessed as accumulation at G2/M phase at antiproliferative IC50 after 48 hrs by propidium iodide staining based FACS analysis (reference value: 24 +/- 2.9%); format: functional; conditions: PC-3
[10] = Induction of apoptosis in human PC3 cells assessed as appearance of apoptotic nuclei at antiproliferative IC50 after 48 hrs by propidium iodide staining based FACS analysis (reference value: 0.7 +/- 0.1%); format: functional, PC-3

Compound | IC50 [1] [µM] | IC50 [2] [µM] | IC50 [3] [µM] | IC50 [4] [µM] | IC50 [5] [µM] | IC50 [6] [µM] | Activity [7] [%] | Activity [8] [%] | Activity [9] [%] | Activity [10] [%]
CC(C)c1n[nH]c2c(Nc3ccccc3)nccc12 | 41.2 | 48.3 | > 50 | – | – | – | – | – | – | –
c1ccc(Nc2nccc3cn[nH]c23)cc1 | > 50 | > 50 | > 50 | – | – | – | – | – | – | –
Clc1cc2c(-c3ccccc3)n[nH]c2c(Nc2ccccc2)n1 | 4.3 | 2.5 | 23.4 | – | – | – | – | – | – | –
COc1cc(Nc2nccc3c(-c4ccccc4)n[nH]c23)cc(OC)c1OC | 3.8 | 0.73 | 14.9 | 0.92 | 0.89 | 0.38 | 80.8 | 0 | 19.2 | 25.8
c1ccc(Nc2nccc3c(-c4ccccc4)n[nH]c23)cc1 | 9 | 22.1 | 24.7 | – | – | – | – | – | – | –
Clc1cc2cn[nH]c2c(Nc2ccccc2)n1 | 36.2 | 34.2 | > 50 | – | – | – | – | – | – | –
CC(C)c1n[nH]c2c(Nc3ccccc3)nc(Cl)cc12 | 21.5 | > 50 | 38.7 | – | – | – | – | – | – | –
COc1cc(Nc2nc(Cl)cc3c(-c4ccccc4)n[nH]c23)cc(OC)c1OC | 6.7 | 5.9 | 21.9 | – | – | 15 | 46.2 | 30.3 | 23.5 | 0.9
COc1cc(Nc2nccc3c(C(C)C)n[nH]c23)cc(OC)c1OC | 10 | 22.9 | > 50 | – | – | – | – | – | – | –
COc1cc(Nc2nc(Cl)cc3c(C(C)C)n[nH]c23)cc(OC)c1OC | 6.1 | 5.6 | 43.8 | – | – | – | – | – | – | –
COc1cc(Nc2nc(Cl)cc3cn[nH]c23)cc(OC)c1OC | 16.2 | 13.1 | > 50 | – | – | – | – | – | – | –
COc1cc(Nc2nccc3cn[nH]c23)cc(OC)c1OC | > 50 | > 50 | > 50 | – | – | – | – | – | – | –
